Measured values from US7199121B2, “Protein tyrosine phosphatase inhibitor” (Institute of Molecular and Cell Biology, priority 2000, dated 2007).

Assays:
Mycobacterium smegmatis = test: Antimicrobial activity, Mycobacterium smegmatis; type: cell-based; details: 50 μM or 100 μM
Staphylococcus aureus = test: Antimicrobial activity, Staphylococcus aureus; type: cell-based; details: 50 μM or 100 μM
Escherichia coli = test: Antimicrobial activity, Escherichia coli; type: cell-based; details: 50 μM or 100 μM
Enterococcus faecalis = test: Antimicrobial activity, Enterococcus faecalis; type: cell-based; details: 50 μM or 100 μM
Proteus vulgaris = test: Antimicrobial activity, Proteus vulgaris; type: cell-based; details: 50 μM or 100 μM
Pseudomonas aeruginosa = test: Antimicrobial activity, Pseudomonas aeruginosa; type: cell-based; details: 50 μM or 100 μM
Candida albicans = test: Antimicrobial activity, Candida albicans; type: cell-based; details: 50 μM or 100 μM
Curvualaria sp. = test: Antimicrobial activity, Curvualaria sp.; type: cell-based; details: 50 μM or 100 μM
PTP = test: Bioassay for PTP inhibitory activity; type: biochemical; details: for effect on in vitro activity of the PTPs tested: 1 μM, receptor and non-receptor PTPs; for PTP inhibitory activity in bioassay: isolated material, 1 and 2 contaminated with about 6-10% of 3; for PTP inhibitory activity after prolonged storage of solution: TFA salt solution after prolonged storage; for PTP inhibitory activity of fresh solution: TFA salt, amount of 3 below 1 mole %
Description: HTS for inhibitory activity towards PTPα was performed in 96 well plates (Nunclon). Dephosphorylation of the substrate (pNPP) was measured in 180 μL reactions/well in assay buffer containing 50 mM sodium acetate (pH 5.5), 0.5 mg/mL BSA and 0.5 mM dithiothreitol. The purified enzyme PTPα (0.3 μg/well) and extracts (5 μL in 50% methanol) were preincubated for 5–10 min at room temperature in a volume of 170 μl. Reactions were initiated by adding 10 μL of substrate in assay buffer to a final concentration of 2 mM. For each plate, 6 reference control wells containing PTPα were preincubated with 5 μL 50% methanol at the same time as the test samples. As a positive control for PTPα inhibition, 1 μM Na3VO4, a potent inhibitor of PTPs, was added to some wells. Blank wells contained 5 μL 50% methanol, 2 mM pNPP in assay buffer and no enzyme. For each set of experiments (from 2–5 plates), reference controls in a separate plate were read at different time points to check the linearity of the reaction. Reactions were stopped with 25 μL KH2PO4 after 45–60 mins incubation at room temperature. The plates were read immediately in a multilabel counter (Wallac 1420 Victor). The OD405 of the reference wells ranged between 0.7–1.2, which represents <10% conversion of the substrate and falls within the linear part of the reaction. Percentage inhibition was determined using the formula: % Inhibition=[{(OD ref−OD blank)−(OD test−OD blank)}/(OD ref−OD blank)]×100 Phosphatase Assay: […]

λPP = target: T1, λPP (Escherichia phage lambda, UniProt P03772); test: Phosphatase assay (pNPP dephosphorylation), λPP; details: for percentage activity of λPP relative to control: 1 μM compound, phosphatase 5.0 nM, pNPP, average of three enzyme preparations ± S.D.
T1 sequence (P03772 1-221): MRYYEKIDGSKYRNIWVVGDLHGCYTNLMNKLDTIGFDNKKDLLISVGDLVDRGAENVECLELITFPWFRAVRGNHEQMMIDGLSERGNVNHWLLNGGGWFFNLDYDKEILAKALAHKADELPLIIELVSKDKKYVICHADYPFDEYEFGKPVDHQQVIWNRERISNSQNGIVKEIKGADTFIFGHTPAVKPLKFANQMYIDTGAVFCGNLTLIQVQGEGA
Description: (§1) All other PTPs described in the text were purchased from New England Biolabs. Dephosphorylation of pNPP was measured in 450 μL reactions containing 50 mM sodium acetate (pH 5.5, or pH 7 for CIP), 0.5 mg/mL BSA, 0.5 μM dithiothreitol, and 2 mM pNPP. Reactions with IPP also contained 2 mM Mn^2+. […] All reactions were carried out at 30° C. and terminated during the linear portion of the reaction.
(§2) [nM] refers to the concentration of phosphatase assayed. The numbers indicate percentage activities relative to respective control reactions without addition of 3, 4, or Na3VO4. The numbers represent the average of the activities measured with three separate enzyme preparations, each of which was assayed in duplicate±S.D.

CD45 = target: T2, CD45 (Homo sapiens, UniProt P08575); test: Phosphatase assay (pNPP dephosphorylation), CD45; details: for percentage activity of CD45 relative to control: 1 μM compound, phosphatase 1.0 nM, pNPP, average of three enzyme preparations ± S.D.
T2 sequence (P08575 599-1306 limits assumed): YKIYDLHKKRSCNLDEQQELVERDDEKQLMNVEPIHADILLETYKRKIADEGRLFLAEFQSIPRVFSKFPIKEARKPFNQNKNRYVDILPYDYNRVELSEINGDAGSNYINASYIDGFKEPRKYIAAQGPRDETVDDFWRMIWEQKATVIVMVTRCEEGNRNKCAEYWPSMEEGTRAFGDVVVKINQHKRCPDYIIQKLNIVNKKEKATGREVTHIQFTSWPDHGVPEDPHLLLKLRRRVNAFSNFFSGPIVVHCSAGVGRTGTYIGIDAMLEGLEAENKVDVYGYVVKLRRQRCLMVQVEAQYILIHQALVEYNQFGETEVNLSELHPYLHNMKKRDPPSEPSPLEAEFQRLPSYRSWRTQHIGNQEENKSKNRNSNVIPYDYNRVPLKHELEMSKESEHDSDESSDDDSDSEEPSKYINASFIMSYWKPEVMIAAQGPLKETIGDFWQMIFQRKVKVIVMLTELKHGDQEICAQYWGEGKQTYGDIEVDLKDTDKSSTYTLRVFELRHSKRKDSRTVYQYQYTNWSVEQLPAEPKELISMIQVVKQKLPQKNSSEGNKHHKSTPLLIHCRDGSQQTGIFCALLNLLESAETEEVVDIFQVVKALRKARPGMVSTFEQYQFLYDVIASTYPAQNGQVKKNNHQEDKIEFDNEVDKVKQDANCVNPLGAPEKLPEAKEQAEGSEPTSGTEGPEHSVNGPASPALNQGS
Description: as §1, §2

TCPTP = target: T3, TCPTP (Homo sapiens, UniProt P17706); test: Phosphatase assay (pNPP dephosphorylation), TCPTP; details: for percentage activity of TCPTP relative to control: 1 μM compound, phosphatase 1.0 nM, pNPP, average of three enzyme preparations ± S.D.
T3 sequence (P17706 1-317 limits assumed): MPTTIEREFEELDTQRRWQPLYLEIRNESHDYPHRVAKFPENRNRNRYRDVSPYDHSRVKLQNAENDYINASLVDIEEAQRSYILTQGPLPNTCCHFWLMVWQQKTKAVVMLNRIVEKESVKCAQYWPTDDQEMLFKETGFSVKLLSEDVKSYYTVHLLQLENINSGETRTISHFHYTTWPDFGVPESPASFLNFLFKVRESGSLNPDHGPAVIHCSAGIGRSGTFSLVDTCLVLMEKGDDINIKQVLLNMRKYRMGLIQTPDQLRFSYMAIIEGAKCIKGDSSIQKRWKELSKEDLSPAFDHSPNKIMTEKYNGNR
Description: (§3) Dephosphorylation of pNPP was measured in 450 μL reactions containing 50 mM sodium acetate (pH 5.5, or pH 7 for CIP), 0.5 mg/mL BSA, 0.5 μM dithiothreitol, and 2 mM pNPP. Reactions with IPP also contained 2 mM Mn^2+. […] All reactions were carried out at 30° C. and terminated during the linear portion of the reaction.
as §2

LAR-D1 = target: T4, LAR-D1 (Homo sapiens, UniProt P10586); test: Phosphatase assay (pNPP dephosphorylation), LAR-D1; details: for percentage activity of LAR-D1 relative to control: 1 μM compound, phosphatase 5.0 nM, pNPP, average of three enzyme preparations ± S.D.
T4 sequence (P10586 1352-1607 limits assumed): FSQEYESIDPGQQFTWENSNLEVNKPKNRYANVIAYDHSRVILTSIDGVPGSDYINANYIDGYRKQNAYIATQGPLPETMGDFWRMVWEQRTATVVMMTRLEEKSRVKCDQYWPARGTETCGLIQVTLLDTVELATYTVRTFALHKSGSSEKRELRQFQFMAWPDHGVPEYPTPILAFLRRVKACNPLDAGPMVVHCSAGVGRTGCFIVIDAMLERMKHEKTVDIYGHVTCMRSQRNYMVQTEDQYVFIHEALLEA
Description: as §3, §2

εD1D2 = εD1D2 (Homo sapiens, UniProt P23469); test: Phosphatase assay (pNPP dephosphorylation), PTPε D1D2; details: for percentage activity of εD1D2 relative to control: 1 μM compound, phosphatase 1.0 nM, pNPP, average of three enzyme preparations ± S.D.
Description: as §1, §2

αD1D2 = αD1D2 (Homo sapiens, UniProt P18433); test: Phosphatase assay (pNPP dephosphorylation), PTPα D1D2; details: for percentage activity of αD1D2 relative to control: 1 μM compound, phosphatase 5.0 nM, pNPP, average of three enzyme preparations ± S.D.
Description: as §1, §2

CIP = test: Phosphatase assay (pNPP dephosphorylation, pH 7), CIP; details: for percentage activity of CIP relative to control: 1 μM compound, phosphatase 0.5 nM, pNPP, pH 7, average of three enzyme preparations ± S.D.; for effect on pNPP phosphatase activity of CIP: neutral pH
Description: as §1, §2

Solubility in solvents = type: physicochemical
[1] = Stability in solution (HPLC analysis); type: physicochemical; details: for amount reduced after incubation: aqueous solution, 52° C., 4 h; for stability in solutions: water, MeOH, DMSO
Text: The structures of 1 and 2 are similar to the structure of a known pyroglutamyl peptidase inhibitor pyrizinostatin. Pyrizinostatin has the same two-ring system (compound 3) but with a ketone side chain. Both 1 and 2 are optically active. It is possible that 1 and 2 are enantioselectively synthesized by the microorganism starting from 3 and 5. […] Upon storage, and during the isolation and purification process, decomposition predominates. […] The formation of 3 was evidenced by HPLC analysis.

Chain of εD1D2 (P23469 70-700 limits assumed): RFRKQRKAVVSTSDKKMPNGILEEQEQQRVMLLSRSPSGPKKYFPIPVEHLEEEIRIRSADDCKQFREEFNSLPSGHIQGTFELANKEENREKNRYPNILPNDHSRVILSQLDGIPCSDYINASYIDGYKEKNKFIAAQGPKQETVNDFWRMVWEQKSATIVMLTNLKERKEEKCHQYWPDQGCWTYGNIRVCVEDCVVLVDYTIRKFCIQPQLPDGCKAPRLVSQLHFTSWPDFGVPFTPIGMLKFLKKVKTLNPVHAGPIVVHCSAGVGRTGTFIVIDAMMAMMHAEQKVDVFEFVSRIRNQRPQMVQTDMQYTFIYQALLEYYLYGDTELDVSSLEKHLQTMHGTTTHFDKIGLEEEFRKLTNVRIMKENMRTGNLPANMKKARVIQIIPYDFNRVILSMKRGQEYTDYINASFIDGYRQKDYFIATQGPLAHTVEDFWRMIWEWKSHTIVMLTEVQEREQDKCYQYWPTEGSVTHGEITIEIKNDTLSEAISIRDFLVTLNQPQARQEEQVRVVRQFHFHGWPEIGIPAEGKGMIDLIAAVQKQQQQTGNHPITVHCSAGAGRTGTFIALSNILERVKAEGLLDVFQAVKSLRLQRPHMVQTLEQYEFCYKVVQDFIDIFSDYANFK
Chain of αD1D2 (P18433 175-802): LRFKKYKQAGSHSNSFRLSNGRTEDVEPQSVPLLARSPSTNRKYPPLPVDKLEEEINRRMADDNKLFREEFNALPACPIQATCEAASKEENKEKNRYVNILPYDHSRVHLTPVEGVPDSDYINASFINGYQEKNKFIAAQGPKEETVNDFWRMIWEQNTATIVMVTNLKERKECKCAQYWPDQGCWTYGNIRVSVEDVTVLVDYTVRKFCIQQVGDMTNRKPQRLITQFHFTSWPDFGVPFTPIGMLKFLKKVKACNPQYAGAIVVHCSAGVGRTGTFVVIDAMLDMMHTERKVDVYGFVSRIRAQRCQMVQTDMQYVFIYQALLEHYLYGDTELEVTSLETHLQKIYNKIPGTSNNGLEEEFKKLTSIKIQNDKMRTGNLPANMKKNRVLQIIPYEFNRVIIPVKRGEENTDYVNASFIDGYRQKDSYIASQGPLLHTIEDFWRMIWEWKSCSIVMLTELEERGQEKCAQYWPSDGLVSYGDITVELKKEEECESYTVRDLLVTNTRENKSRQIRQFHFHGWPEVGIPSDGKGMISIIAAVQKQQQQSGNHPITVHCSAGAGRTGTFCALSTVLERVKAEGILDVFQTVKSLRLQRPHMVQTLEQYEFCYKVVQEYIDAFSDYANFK

Row | Structure (SMILES) | effect on in vitro activity of the PTPs tested (PTP) | PTP inhibitory activity in bioassay (PTP) | percentage activity of λPP relative to control (λPP) | percentage activity of CD45 relative to control (CD45) | percentage activity of TCPTP relative to control (TCPTP) | percentage activity of LAR-D1 relative to control (LAR-D1) | percentage activity of εD1D2 relative to control (εD1D2) | percentage activity of αD1D2 relative to control (αD1D2) | percentage activity of CIP relative to control (CIP) | effect on pNPP phosphatase activity of CIP (CIP) | solubility in DMSO, methanol and water (Solubility in solvents) | solubility in dichloromethane, chloroform and hexanes (Solubility in solvents) | amount reduced after incubation [1] | stability in solutions [1] | PTP inhibitory activity after prolonged storage of solution (PTP) | PTP inhibitory activity of fresh solution (PTP) | further results
1 | Cn1nc2c(nc1=O)c(=O)n(C)c(=O)n2C [Compound 3, 2,8-dihydro-2,6,8-trimethyl-pyrimido[5,4-e]-1,2,4-triazine-3,5,7(6H)-trione] | inhibited all the PTPs tested | potent PTP inhibitor | 48 ± 2.0% | 15 ± 2.5% | 34 ± 1.0% | 17 ± 2.0% | 17 ± 4.0% | 17 ± 1.1% | 100 ± 1.0% | neither compound had any detectable effect |  |  |  |  |  |  | antimicrobial activity against Mycobacterium smegmatis (Mycobacterium smegmatis): no antimicrobial activity; antimicrobial activity against Staphylococcus aureus (Staphylococcus aureus): no antimicrobial activity; antimicrobial activity against Escherichia coli (Escherichia coli): no antimicrobial activity; antimicrobial activity against Enterococcus faecalis (Enterococcus faecalis): no antimicrobial activity; antimicrobial activity against Proteus vulgaris (Proteus vulgaris): no antimicrobial activity; antimicrobial activity against Pseudomonas aeruginosa (Pseudomonas aeruginosa): no antimicrobial activity; antimicrobial activity against Candida albicans (Candida albicans): no antimicrobial activity; antimicrobial activity against Curvualaria sp. (Curvualaria sp.): no antimicrobial activity; inhibition at 1 µM (λPP; read-out: inhibition of λPP activity): ~50%; inhibition at 1 µM (CD45; read-out: inhibition of CD45): 83 to 85%; inhibition at 1 µM (TCPTP; read-out: inhibition of TC-PTP): ~65%; inhibition at 1 µM (LAR-D1; read-out: inhibition of LAR-D1): 83 to 85%; inhibition at 1 µM (εD1D2; read-out: inhibition of εD1D2): 83 to 85%; PTP inhibition of αD1D2 at neutral pH (αD1D2; neutral pH, results not shown): continues to behave as a PTP inhibitor; inhibition at 1 µM (αD1D2; read-out: inhibition of αD1D2): 83 to 85%
2 | CN1N=C2N(C)C(=O)N(C)C(=O)C2(C2NC(N)=NC2=O)NC1=O (single isomer, unassigned) [Compound 1, 4a-(2-amino-5-oxo-4,5-dihydro-3H-imidazol-4-yl)-2,4,4a,8-tetrahydro-2,6,8-trimethyl-pyrimido[5,4-e]-1,2,4-triazine-3,5,7(6H)-trione] |  | much weaker inhibitors |  |  |  |  |  |  |  |  | soluble | insoluble | 62% | unstable | became active | inactive | 
3 | CN1N=C2N(C)C(=O)N(C)C(=O)C2(C2NC(N)=NC2=O)NC1=O (single isomer, unassigned) [Compound 2, 4a-(2-amino-5-oxo-4,5-dihydro-3H-imidazol-4-yl)-2,4,4a,8-tetrahydro-2,6,8-trimethyl-pyrimido[5,4-e]-1,2,4-triazine-3,5,7(6H)-trione] |  | much weaker inhibitors |  |  |  |  |  |  |  |  | soluble | insoluble | 85% | unstable | became active | inactive | 
4 | Cn1nc2c(nc1=O)n(C)c(=O)n2C [Compound 4, 2,5,7-trimethyl-2,7-dihydro-5H-imidazo[4,5-e]-1,2,4-triazine-3,6-dione] | negligible effects |  | 100 ± 6.0% | 96 ± 1.0% | 99 ± 2.0% | 97 ± 1.5% | 99 ± 1.0% | 98 ± 0.5% | 99 ± 4.0% | neither compound had any detectable effect |  |  |  |  |  |  | effect on λPP activity (λPP; 1 μM): unaffected
5 | [Na+].[Na+].[Na+].[O]=[V]([O-])([O-])[O-] [Na3VO4, sodium orthovanadate, reference compound] |  |  | 49 ± 3.0% | 14 ± 0.5% | 31 ± 5.0% | 26 ± 1.0% | 18 ± 2.0% | 24 ± 1.5% | 98 ± 3.0% | lack of effect |  |  |  |  |  |  | 
